Assay results taken from ChEMBL document CHEMBL1201862, “PubChem BioAssay data set” (2004).
The source made the active and inactive calls.

What was measured:
[1] = biological target: Glyceraldehyde-3-phosphate dehydrogenase (Homo sapiens, UniProt P04406)
Bcl-2-related protein A1 [2] = biological target: T1, Bcl-2-related protein A1 (Mus musculus, UniProt Q07440); assay: small-molecule antagonists of Bfl-1/BH3 interaction – biochemical, TR-FRET, mouse Bfl-1, confirmation (AID 621);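 further: TR-FRET binding of GST-Bfl-1 to FITC-labelled Bid peptide via terbium antibody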
T1 sequence (Q07440 whole entry): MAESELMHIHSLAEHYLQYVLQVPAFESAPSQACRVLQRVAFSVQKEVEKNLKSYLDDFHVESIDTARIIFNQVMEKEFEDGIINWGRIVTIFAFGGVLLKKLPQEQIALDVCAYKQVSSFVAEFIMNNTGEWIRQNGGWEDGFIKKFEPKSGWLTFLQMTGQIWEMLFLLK

Bcl-2-related protein A1 [3] = biological target: T1, Bcl-2-related protein A1; assay: Bfl-1 binding inhibitors, SAR follow-up, biochemical, fluorescence polarization (AID 1070)
[4] = Luminescence-based cell-based high throughput dose response assay to identify activators of the DAF-12 from the parasite S. stercoralis (ssDAF-12).; format: functional
[5] = biological target: T2, Oxysterols receptor LXR-beta (Homo sapiens, UniProt P55055); assay: LXR agonists, Gal4 luciferase reporter, dose response, counter-screen for ssDAF-12 agonist project, cell-based, luminescence, HEK293, S. stercoralis campaign (AID 720737); format: functional; settings: read-out: IC50 (the source's name)
T2 sequence (P55055 whole entry): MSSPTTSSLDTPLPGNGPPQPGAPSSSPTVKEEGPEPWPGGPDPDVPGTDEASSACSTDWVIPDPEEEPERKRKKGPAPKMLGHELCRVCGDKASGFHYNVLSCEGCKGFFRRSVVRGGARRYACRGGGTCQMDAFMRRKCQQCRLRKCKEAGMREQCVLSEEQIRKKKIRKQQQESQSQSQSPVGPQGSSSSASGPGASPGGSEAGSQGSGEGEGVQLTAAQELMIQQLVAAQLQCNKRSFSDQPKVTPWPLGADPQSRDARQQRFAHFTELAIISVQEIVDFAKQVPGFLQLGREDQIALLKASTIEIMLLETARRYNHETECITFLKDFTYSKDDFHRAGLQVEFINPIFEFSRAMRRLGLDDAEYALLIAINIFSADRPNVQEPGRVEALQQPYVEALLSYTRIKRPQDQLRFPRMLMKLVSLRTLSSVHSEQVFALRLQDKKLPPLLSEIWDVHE

[6] = antimalarial activity against Dd2 parasites – SYBR Green fluorescence, erythrocytes, dry powder, set 2, dose response (AID 1159574); format: functional, cell-based
[7] = growth inhibition of yeast DHODH-expressing 3D7 parasites – SYBR Green, dry powder samples, dose response (AID 1159570); format: functional, cell-based;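 further: parasite growth measured after 72 hours of compound exposure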
[8] = Dd2 malaria parasite growth inhibition potency – SYBR Green, dry powder samples, dose response (AID 1159566); format: functional, cell-based;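 further: potency for growth inhibition with lower SYBR green DNA signal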
[9] = P. falciparum Dd2 growth inhibitors, dose response, SYBR Green, cherry-picked samples (AID 1159567); format: functional, cell-based
[10] = growth inhibition of PfATP4-mutant resistant parasites – NITD609-resistant line, SYBR Green, dry powder, dose response (AID 1159571); format: functional, cell-based;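 further: parasites synchronized at ring stage by sorbitol before testing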
[11] = Dd2 parasite growth inhibition in erythrocytes – SYBR Green, dry powder samples, set 9, dose response (AID 1159568); format: functional, cell-based
[12] = biological target: Mitogen-activated protein kinase 10 (Homo sapiens, UniProt P53779); assay: Dose response biochemical screening assay for inhibitors of c-Jun N-Terminal Kinase 3 (JNK3). [Related pubchem assays: 746 ]
[13] = biological target: T3, Tyrosine-protein phosphatase non-receptor type 7 (Homo sapiens, UniProt P35236); format: functional
T3 sequence (P35236 whole entry): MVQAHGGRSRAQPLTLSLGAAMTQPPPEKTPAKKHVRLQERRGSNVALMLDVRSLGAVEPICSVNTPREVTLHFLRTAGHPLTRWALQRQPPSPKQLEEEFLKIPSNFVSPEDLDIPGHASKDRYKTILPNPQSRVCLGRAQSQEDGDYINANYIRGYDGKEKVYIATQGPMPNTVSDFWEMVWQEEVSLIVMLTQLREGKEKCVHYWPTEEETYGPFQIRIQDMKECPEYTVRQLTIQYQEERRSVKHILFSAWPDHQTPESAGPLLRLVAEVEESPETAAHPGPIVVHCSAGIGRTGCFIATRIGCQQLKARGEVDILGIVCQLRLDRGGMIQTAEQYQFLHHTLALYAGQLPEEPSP

[14] = biological target: T4, Dual specificity protein phosphatase 6 (Rattus norvegicus, UniProt Q64346); format: functional
T4 sequence (Q64346 whole entry): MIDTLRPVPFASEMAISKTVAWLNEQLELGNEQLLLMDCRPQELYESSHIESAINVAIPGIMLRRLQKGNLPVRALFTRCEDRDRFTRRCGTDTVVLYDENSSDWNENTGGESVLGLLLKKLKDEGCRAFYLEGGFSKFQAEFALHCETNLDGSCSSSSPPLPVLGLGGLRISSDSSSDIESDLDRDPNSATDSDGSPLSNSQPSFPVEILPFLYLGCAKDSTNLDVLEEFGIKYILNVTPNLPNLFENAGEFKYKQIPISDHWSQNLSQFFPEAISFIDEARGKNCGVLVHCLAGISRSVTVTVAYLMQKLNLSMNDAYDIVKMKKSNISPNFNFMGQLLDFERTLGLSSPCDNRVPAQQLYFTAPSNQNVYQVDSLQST

[15] = biological target: T3, Tyrosine-protein phosphatase non-receptor type 7; assay: redox-active compounds inhibiting HePTP phosphatase – biochemical, fluorescence, mechanism study (AID 2068); format: functional
[16] = biological target: T4, Dual specificity protein phosphatase 6
SUMO-activating enzyme [17] = biological target: T5, SUMO-activating enzyme (Homo sapiens, UniProt Q9UBT2); assay: blockers of UBC9-mediated SUMO conjugation – biochemical, AlphaScreen, SUMOylation inhibitor project, confirmation (AID 2018); format: functional
[18] = biological target: Dual specificity protein phosphatase 3 (Homo sapiens, UniProt P51452); assay: SAR VHR1 Fluorescent Assay for In Vitro dose response studies. [Related pubchem assays (depositor defined):AID1654, AID1661, AID1878, AID1992, AID2004, AID2070, AID2085]; format: functional
Bcl-2-like protein 10 = biological target: T6, Bcl-2-like protein 10 (Homo sapiens, UniProt Q9HD36); assay: Bcl-B/TR3 peptide binding disruption – biochemical, fluorescence polarization, FITC-TR3 peptide, selectivity assay for Bfl-1 inhibitor project, primary screen (AID 748);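 further: fluorescence polarization from a fluorescein-labelled TR3 peptide binding purified Bcl-B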
T6 sequence (Q9HD36 whole entry): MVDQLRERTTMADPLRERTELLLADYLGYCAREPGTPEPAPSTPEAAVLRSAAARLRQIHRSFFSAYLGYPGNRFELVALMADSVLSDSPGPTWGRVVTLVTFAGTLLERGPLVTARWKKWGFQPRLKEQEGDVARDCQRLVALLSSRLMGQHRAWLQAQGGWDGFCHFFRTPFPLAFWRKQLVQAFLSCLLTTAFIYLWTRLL

Genome polyprotein = Genome polyprotein (dengue virus type 2, UniProt P29990); assay: flavivirus cap methylation enzyme inhibition – biochemical, confirmation dose response, primary screen (AID 588689); format: functional
SUMO-activating enzyme [19] = biological target: T5, SUMO-activating enzyme; assay: blockers of SAE1/SAE2–UBC9 SUMO transfer – biochemical, HTRF, uHTS, primary screen (AID 2006); format: protein-complex assay
Bcl-2-like protein 1 = Bcl-2-like protein 1 (Homo sapiens, UniProt Q07817); assay: blockers of BCLXL peptide binding – biochemical, fluorescence polarization, 1536-well, selectivity assay for MCL1 inhibitor project, dose response (AID 2218)
Estrogen receptor beta = Estrogen receptor beta (Homo sapiens, UniProt Q92731); assay: blockers of SRC-3 recruitment to ERβ – biochemical, ELISA, streptavidin-HRP readout, orthogonal assay, confirmation (AID 1060)
[20] = biological target: T7, Induced myeloid leukemia cell differentiation protein Mcl-1 (Homo sapiens, UniProt Q07820); assay: blockers of MCL1 binding to BIM peptide – biochemical, fluorescence polarization, BIM-BH3 peptide, 1536-well, dose response (AID 2217)
[21] = biological target: T7, Induced myeloid leukemia cell differentiation protein Mcl-1; format: functional

T5 sequence (Q9UBE0 whole entry): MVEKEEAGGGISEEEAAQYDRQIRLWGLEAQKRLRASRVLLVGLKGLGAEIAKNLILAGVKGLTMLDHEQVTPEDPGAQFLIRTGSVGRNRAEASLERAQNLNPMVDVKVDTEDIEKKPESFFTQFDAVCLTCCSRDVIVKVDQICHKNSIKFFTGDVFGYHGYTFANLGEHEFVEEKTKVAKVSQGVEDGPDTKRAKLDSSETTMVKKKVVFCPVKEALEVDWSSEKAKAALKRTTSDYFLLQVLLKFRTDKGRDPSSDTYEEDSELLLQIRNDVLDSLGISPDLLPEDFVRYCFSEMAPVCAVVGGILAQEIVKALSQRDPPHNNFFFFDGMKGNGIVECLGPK
T5 sequence (Q9UBT2 whole entry): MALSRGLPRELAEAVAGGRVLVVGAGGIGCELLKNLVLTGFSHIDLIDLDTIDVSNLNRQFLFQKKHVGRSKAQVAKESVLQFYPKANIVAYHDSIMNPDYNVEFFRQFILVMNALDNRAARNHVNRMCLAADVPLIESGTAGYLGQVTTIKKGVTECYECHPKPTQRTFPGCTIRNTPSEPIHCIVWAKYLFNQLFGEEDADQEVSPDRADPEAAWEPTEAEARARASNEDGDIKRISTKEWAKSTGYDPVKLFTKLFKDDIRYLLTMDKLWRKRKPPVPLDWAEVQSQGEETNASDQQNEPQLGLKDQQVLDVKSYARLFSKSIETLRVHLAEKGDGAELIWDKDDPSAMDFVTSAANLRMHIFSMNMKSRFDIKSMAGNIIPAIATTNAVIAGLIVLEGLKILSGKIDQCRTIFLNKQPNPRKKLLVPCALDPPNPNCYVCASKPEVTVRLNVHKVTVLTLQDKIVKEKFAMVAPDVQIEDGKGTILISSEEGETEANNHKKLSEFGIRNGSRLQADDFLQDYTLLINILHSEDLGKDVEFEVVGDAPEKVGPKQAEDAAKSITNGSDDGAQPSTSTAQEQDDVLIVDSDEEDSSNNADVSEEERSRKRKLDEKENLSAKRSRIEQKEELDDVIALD
T7 sequence (Q07820 whole entry): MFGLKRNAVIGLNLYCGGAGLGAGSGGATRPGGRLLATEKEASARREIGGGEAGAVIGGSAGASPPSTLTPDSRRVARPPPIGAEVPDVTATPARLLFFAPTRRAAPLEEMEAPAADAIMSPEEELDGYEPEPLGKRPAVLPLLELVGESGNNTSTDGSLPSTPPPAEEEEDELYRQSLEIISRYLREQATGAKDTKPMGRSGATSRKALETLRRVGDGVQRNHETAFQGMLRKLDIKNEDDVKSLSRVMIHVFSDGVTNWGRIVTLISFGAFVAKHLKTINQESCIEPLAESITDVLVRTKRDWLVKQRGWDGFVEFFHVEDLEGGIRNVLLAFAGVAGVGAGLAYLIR
Glyceraldehyde-3-phosphate dehydrogenase, sequence (P04406 whole entry): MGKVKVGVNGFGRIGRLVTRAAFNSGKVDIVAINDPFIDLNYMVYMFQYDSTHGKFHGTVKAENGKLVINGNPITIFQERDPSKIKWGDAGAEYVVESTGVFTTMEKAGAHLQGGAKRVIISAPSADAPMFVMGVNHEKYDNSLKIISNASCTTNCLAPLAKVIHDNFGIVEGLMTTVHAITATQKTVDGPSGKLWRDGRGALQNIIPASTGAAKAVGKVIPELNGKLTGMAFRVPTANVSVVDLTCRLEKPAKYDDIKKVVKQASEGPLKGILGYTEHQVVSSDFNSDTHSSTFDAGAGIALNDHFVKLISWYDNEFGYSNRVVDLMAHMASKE
Estrogen receptor beta, sequence (Q92731 whole entry): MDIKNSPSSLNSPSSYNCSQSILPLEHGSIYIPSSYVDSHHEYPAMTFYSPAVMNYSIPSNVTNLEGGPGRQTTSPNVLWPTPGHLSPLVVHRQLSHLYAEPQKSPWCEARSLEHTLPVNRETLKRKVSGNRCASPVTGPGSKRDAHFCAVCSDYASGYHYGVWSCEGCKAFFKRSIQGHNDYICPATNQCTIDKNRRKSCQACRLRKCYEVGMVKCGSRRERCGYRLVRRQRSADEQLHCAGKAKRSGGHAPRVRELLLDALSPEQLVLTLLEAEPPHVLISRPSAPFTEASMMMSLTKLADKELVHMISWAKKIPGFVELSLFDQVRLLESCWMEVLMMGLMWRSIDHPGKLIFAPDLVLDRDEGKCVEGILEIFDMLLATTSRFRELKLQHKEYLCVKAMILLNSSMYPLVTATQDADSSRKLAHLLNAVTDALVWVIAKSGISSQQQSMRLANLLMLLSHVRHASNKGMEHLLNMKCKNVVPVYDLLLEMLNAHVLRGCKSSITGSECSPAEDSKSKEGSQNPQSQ
Bcl-2-like protein 1, sequence (Q07817 whole entry): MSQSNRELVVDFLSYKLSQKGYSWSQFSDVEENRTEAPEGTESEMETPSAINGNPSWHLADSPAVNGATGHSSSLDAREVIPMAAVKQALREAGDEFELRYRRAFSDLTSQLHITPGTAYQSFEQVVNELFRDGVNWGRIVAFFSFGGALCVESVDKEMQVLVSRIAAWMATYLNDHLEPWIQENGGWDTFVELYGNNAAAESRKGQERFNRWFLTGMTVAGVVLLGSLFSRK
Dual specificity protein phosphatase 3, sequence (P51452 whole entry): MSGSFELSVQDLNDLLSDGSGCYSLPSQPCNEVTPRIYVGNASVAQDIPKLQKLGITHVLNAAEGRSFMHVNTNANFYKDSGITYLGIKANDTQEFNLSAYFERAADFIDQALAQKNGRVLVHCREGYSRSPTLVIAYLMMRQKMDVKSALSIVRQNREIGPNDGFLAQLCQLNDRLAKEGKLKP
Mitogen-activated protein kinase 10, sequence (P53779 whole entry): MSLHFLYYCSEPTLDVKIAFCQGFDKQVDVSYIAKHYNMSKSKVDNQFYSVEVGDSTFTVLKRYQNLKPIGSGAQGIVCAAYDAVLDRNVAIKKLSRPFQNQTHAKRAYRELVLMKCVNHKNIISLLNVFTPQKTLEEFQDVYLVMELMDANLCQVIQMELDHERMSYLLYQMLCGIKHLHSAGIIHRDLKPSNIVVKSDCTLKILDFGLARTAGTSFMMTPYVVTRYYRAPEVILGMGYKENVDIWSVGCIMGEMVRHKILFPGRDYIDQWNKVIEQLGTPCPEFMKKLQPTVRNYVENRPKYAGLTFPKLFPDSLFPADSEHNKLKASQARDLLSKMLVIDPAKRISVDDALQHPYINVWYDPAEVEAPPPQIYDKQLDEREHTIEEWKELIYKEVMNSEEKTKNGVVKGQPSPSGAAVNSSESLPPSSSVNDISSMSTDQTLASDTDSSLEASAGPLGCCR
Genome polyprotein, sequence (P29990 2492-3391 limits assumed): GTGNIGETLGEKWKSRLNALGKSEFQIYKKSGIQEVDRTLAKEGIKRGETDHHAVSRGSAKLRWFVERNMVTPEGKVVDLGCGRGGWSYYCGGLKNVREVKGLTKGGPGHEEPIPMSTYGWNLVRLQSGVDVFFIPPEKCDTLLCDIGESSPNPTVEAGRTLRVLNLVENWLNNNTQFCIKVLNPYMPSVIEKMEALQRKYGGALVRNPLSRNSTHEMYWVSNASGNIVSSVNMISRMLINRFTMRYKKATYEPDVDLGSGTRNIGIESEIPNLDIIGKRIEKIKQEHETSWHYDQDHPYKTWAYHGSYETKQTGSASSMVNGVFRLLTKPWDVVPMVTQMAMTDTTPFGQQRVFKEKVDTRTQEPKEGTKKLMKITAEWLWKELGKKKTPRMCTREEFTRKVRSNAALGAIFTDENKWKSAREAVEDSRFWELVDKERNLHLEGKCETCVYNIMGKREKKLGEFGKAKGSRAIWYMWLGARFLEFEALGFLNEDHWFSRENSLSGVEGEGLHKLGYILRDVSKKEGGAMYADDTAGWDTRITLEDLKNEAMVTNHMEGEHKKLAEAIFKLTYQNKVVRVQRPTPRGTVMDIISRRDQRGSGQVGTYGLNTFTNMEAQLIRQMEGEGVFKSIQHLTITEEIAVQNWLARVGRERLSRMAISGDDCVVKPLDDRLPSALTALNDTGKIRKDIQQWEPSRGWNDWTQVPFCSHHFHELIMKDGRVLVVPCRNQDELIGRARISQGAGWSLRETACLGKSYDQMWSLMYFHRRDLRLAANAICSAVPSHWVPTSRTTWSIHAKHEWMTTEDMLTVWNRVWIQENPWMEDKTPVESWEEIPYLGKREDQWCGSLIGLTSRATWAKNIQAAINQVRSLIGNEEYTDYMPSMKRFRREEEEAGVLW

For `Cc1cccc(N2CCN(C3=C(Cl)C(=O)N(c4ccc(Cl)c(Cl)c4)C3=O)CC2)c1C`, the IC50 [1] was > 100 µM (not active), the IC50 (Bcl-2-related protein A1 [2]) was > 100 µM (not active) and the IC50 (Bcl-2-related protein A1 [3]) was > 100 µM (not active).

With `CC(=O)NC1(c2ccccc2)CCN(c2cc(C)nc(-c3ccccc3)n2)CC1` the IC50 [4] was > 67.5 µM (inactive) and the EC50 [5] was > 67.5 µM (inactive).

With `O=C(c1ccccc1F)N1CC(=O)N2[C@H](CO)[C@H](c3ccc(-c4cccnc4)cc3)[C@H]2C1` the AC50 [6] was 0.427 µM (active), the AC50 [7] was 0.197 µM (active) and the AC50 [8] was 0.129 µM (active). The AC50 [9] was < 0.3 µM (active) and the AC50 [10] was 0.148 µM (active).

For `O=C(C1CCOCC1)N1C[C@@H]2[C@H](c3ccccc31)[C@H](CO)N2C(=O)Cc1ccccn1`, the AC50 [11] was 22.9 µM (active).

With `C/C(NC1CCCC1)=C(/C#N)C(N)=O` the IC50 [12] was 33.3 µM (not active).

For `CSc1nnc(-c2ccco2)c(-c2ccco2)n1`, the IC50 [13] was 41.5 µM (active), the IC50 [1] was 99.1 µM (active) and the IC50 [14] was 99.7 µM (active). The IC50 [15] was 1.04 µM (active), the IC50 [16] was 80.4 µM (active) and the IC50 (SUMO-activating enzyme [17]) was 2.91 µM (active). For the same compound, the IC50 [18] was 29.5 µM (active), the IC50 (Bcl-2-like protein 10) was 19.4 µM (active) and the IC50 (Genome polyprotein) was 86.8 µM (active). The IC50 (SUMO-activating enzyme [19]) was 15.2 µM (active), the IC50 (Bcl-2-like protein 1) was > 109 µM (not active) and the IC50 (Estrogen receptor beta) was > 50 µM (not active). The IC50 [20] was 13.2 µM (not active) and the IC50 [21] was 8.02 µM (active).
